Legend:
treated eyes (right eye) = conditions: rabbit, in vivo
Protocol: Young adult New Zealand White rabbits each weighing 3-4 kg were obtained from Western Oregon Rabbit Co. (Philomath, Oreg.). […] All animals were acclimated and observed for health issues for at least two weeks prior to being used in the study.
(§1) For the ocular toxicity study, there were four groups. […] The total exposure was 12 doses over the period of 12 weeks. Clinical observations were performed on weekdays, and before and after each dosing. Following the final observations (i.e., one week after the last dose), the rabbits were sacrificed and the eyes were processed for histological evaluation.
One drop of sterile proparacaine hydrochloride (a local anesthetic) was put on the eye (to be treated) 5 minutes before dose administration. […] The position of the device was checked to ensure that the active agent matrix was in immediate contact with the white part of the eye but not the cornea. Digital timers were used for accurate application times (i.e., 5, 10, or 20 minutes). After the given application duration, the applicator was carefully removed from the eye.
All animals (both left and right eyes) were examined by indirect ophthalmoscopy of the cornea, conjunctiva, anterior chamber, vitreous, posterior chamber, and sclera. […] Observations on the anterior and posterior segments of the eye were made, graded, and recorded. […]

[1] = Ocular toxicity study: body weight; conditions: 20 min, 12 weekly doses
Protocol: as §1
Body weights of the animal were taken upon arrival, and then monthly. All animals (both left and right eyes) were examined by indirect ophthalmoscopy of the cornea, conjunctiva, anterior chamber, vitreous, posterior chamber, and sclera. One to two drops each of phenylephrine hydrochloride and cyclopentolate hydrochloride were used as mydriatics. Observations on the anterior and posterior segments of the eye were made, graded, and recorded. A modified McDonald-Shadduck scale was used for grading eye irritation and ocular toxicity.

In the case of `C[C@@H]1C[C@H]2[C@@H]3CCC4=CC(=O)C=C[C@]4(C)[C@@]3(F)[C@@H](O)C[C@]2(C)[C@@]1(O)C(=O)COP(=O)(O)O` [DSP, dexamethasone sodium phosphate], the “Typical conjunctival injection scores immediately after treatment” value (treated eyes (right eye); New Zealand White, 12 weeks) is reported as 1 or <1, the “Ocular findings in treated eyes (conjunctival injection, discharge, corneal haze)” value (treated eyes (right eye)) is reported as “transient and mild in nature” and the “Body Weight” value ([1]; 15% DSP) is reported as 8% loss. For the same compound, the “Body Weight” value ([1]; 25% DSP) was 13% loss.
